{
  "source": "paper PMC6344135",
  "about": "“Analgesic effects of the cathepsin K inhibitor L-006235 in the monosodium iodoacetate model of osteoarthritis pain” (Pain Reports, 2018)",
  "origin": "cited, not measured here",
  "key": {"[1]": {"tested_on": "rabbit ACLT and dog partial medial meniscectomy models", "set-up": "method as in PMID 29523155", "settings": "once daily for 7 weeks (rabbit), 28 days (dog)"}, "surgical model of OA": {"tested_on": "surgical model of OA", "settings": "pain not analysed"}, "MIA model of OA pain": {"tested_on": "MIA model of OA pain", "settings": "preventative and reversal"}},
  "data": [
    {"compound": "C#C[C@@H]1CN(C(=O)[C@H](CC(C)C)NC(=O)c2ccc(-c3nc(N4CCN(C)CC4)sc3F)cc2)[C@@H]2C(=O)CO[C@H]12", "note": "[MIV-711]", "values": [
      {"measurement": "joint pathology", "setting": "[1]", "value": "prophylactic and therapeutic effects"}
    ]},
    {"compound": "NCCCC(O)(P(=O)(O)O)P(=O)(O)O", "note": "[alendronate]", "values": [
      {"measurement": "bone resorption and cartilage", "setting": "surgical model of OA", "value": "inhibited bone resorption and had chondroprotective effects"}
    ]},
    {"compound": "O=P(O)(O)C(O)(Cn1ccnc1)P(=O)(O)O", "note": "[zoledronate]", "values": [
      {"measurement": "pain behaviour in MIA rats", "setting": "MIA model of OA pain", "value": "Significant preventative, and reversal, effects"}
    ]}
  ]
}
